Patent publication US20250179032A1, “HETEROCYCLIC INHIBITORS OF GLUT9 FOR TREATMENT OF DISEASE” (HORIZON THERAPEUTICS IRELAND DAC, priority 2022, published 2025)
Read-outs that look alike come from different tables or passages of the source.

Target: T1, H. sapiens SLC2A9 variant 2 (GLUT9B) (Homo sapiens, UniProt Q9NRM0)
T1 sequence (Q9NRM0 1-511 isoform Q9NRM0-2): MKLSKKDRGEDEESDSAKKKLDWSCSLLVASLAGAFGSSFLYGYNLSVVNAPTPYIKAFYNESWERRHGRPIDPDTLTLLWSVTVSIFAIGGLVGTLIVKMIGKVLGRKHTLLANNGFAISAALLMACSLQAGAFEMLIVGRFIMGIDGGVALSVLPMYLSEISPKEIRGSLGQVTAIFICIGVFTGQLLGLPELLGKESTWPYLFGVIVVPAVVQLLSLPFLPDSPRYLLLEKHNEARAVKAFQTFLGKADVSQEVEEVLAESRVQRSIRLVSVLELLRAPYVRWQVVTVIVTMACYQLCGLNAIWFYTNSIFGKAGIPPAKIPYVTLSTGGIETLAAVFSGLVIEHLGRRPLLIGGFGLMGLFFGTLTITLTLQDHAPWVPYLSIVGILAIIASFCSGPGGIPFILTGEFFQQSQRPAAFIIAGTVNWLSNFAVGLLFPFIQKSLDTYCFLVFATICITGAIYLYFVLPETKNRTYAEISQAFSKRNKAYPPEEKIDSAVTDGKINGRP
Assay: GLUT9 functional assay: uric acid uptake in HEK293T cells, allantoin formation by MS/MS as proxy of GLUT9B inhibition
Type: cell-based
Details: HEK293T cells stably expressing GLUT9B and transiently A. oryzae uricase, uric acid 0.3 mM, 37° C.
Method: Uric acid stocks (9 mM, Millipore-Sigma, U0881) were generated in 125 mM choline chloride (Millipore-Sigma, C7017) and the concentration was determined at 293 nm using a molar extinction coefficient of 9600 M- ^1 cm- ^1) after collecting the absorbance spectra from 220-350 nm. Allantoin stocks (12 mM Toronto Research Chemicals, A540500) were generated in LCMS grade water (Thermo Scientific, 51140). The concentration of allantoin was determined by qNMR (Michigan State University). HEK293T cells were purchased from ATCC (HEK 293T/17 SF). Hanks buffered saline salts (HBSS) was purchased from Millipore-Sigma (H6648-1L).
SLC2A9 variant 2 was assayed in sodium gluconate buffer was composed of 125 mM sodium gluconate (TCI Chemicals, G0041-500G), 4.8 mM potassium gluconate (TCI Chemicals, G0040-500G), 1.2 mM calcium gluconate (TCI Chemicals, G0037-500G), 1.2 mM potassium phosphate (pH 7.4, Millipore-Sigma, 17835), 1.2 mM MgSO4, Millipore-Sigma, M2773-500G), 25 mM HEPES pH 7.3, (Millipore-Sigma, 54457). The final pH of the buffer was 7.4. Urate 1 was assayed in the same buffer save the pH was made to be 5.5 using 25 mM MES (pH 5.5) buffer vs 25 mM HEPES (pH 7.3) buffer.
Human untagged clone for (untagged)-human solute carrier family 2 member 9 (SLC2A9), transcript variant (SLC2A9/NM_001001290, FIG. 1 and FIG. 2; SEQ ID NOS: 3 and 4) was purchased from Origene (Cat #SC319239). SLC2A9 variant 2 (GLUT9B) gene was amplified by PCR using the following primer to allow for the introduction of EcoR1 and Not1 sites using the primers below.
HEK293T clonal stable cell lines containing the SLC2A9 variant 2 construct in the bicistronic pIRESpuro vector were generated using Viafect™ (Promega E4981) as per the manufactures instructions and puromycin selection (5 μg×mL^−1).
Uric acid uptake was measured in HEK293T cells stably expressing H. sapiens SLC2A9 variant 2 (GLUT9B) and transiently expressing A. oryzae uricase. Thus, decreased allantoin formation was used as a proxy of GLUT9B inhibition. Briefly, clonal cells were plated (53,000 cells/cm^2) in DMEM with 10% FBS. Twenty-four hours later, A. oryzae uricase was transfected, and assay conducted 3 days later across a 12-point curve in buffer (in mM: 125 sodium gluconate, 4.8 potassium gluconate, 1.2 calcium gluconate, 1.2 potassium phosphate, 1.2 magnesium sulfate4, 25 HEPES; pH 7.4) with uric acid at the GLUT9B Km (0.3 mM) for 15 min or for 60 min, at 37° C. Following wash (Hanks, 37° C.), plates were sealed, incubated (5 min, RT) and cells freeze-thawed prior to lysing in water and shaking (30 min RT). Lysates were filtered through PVDF and subjected to MSMS using a 10 mM ammonium acetate-based mobile phase on a porous graphitic carbon column. Allantoin was detected in positive ion mode. Desired analyte concentrations were quantitated by integrating the area under the curve followed by a log-logistic regression model and data compared to a standard curve prepared in a matching HEK293T biological matrix.
Mass spectrometry measurement of allantoin was completed using an Agilent RapidFire 300 coupled to a Sciex API 4000 mass spectrometer. The stationary phase was an Agilent cartridge D (hypercarb). Mobile phase A was 10 mM ammonium acetate. Mobile phase B was 5 mM ammonium acetate, 25% acetonitrile, 25% acetone. Allantoin was detected in positive ion mode with the following compound ID settings: Q1 159, Q3 115.8, DP 57, CE 12.5 Dwell 100 ms. The source settings were CAD 10, CUR 20, GS1 50, GS250 IS/NC: 5000, TEM 650, EP 10, CXP 10 where Q1 and Q3 resolution were set to low.
Data was quantitated using Area under the curve integration was performed with the RapidFire™ Integrator (Agilent Technologies) for the desired analytes. Quantitation was completed using in a using a log-logistic regression model using allantoin in matching HEK293T biological matrix.

[1] = 15 minute assay, read-out: 15 min IC50
[2] = 60 minute assay, read-out: 60 min IC50

Compound	IC50 [1] [nM]	IC50 [2] [nM]
O=C(O)C1CCN(c2nc(CCC3CC3)cnc2-c2cc(F)c3occc3c2)CC1 [Compound 73, 1-(6-(2-cyclopropylethyl)-3-(7-fluorobenzofuran-5-yl)pyrazin-2-yl)piperidine-4-carboxylic acid]	< 500	
COCCCCc1cnc(-c2ccc(OCCOC)cc2)c(N2CCC(C(=O)O)CC2)n1 [Compound 141, 1-(6-(4-methoxybutyl)-3-(4-(2-methoxyethoxy)phenyl)pyrazin-2-yl)piperidine-4-carboxylic acid]	< 500	
COCCCc1cnc(-c2cc(F)c3c(c2)OCO3)c(N2CCCC(C(=O)O)CC2)c1 (stereo not drawn) [Compound 246, 1-(2-(7-fluorobenzo[d][1,3]dioxol-5-yl)-5-(3-methoxypropyl)pyridin-3-yl)azepane-4-carboxylic acid]		< 500
O=C(O)C1(O)CCN(c2nc(CCC(F)(F)F)cnc2-c2cc(F)c3occc3c2)CC1 [Compound 91, 1-(3-(7-fluorobenzofuran-5-yl)-6-(3,3,3-trifluoropropyl)pyrazin-2-yl)-4-hydroxypiperidine-4-carboxylic acid]	< 500	
COCCCc1cnc(-c2ccc3nsnc3c2)c(N2CCC(C(=O)O)CC2)n1 [Compound 204, 1-(3-(benzo[c][1,2,5]thiadiazol-5-yl)-6-(3-methoxypropyl)pyrazin-2-yl)piperidine-4-carboxylic acid]		> 2000
COCc1nc(N2CCC(C(=O)O)CC2)c(-c2cc(F)c3c(ccn3C)c2)nc1Cl [Compound 56, 1-(5-chloro-3-(7-fluoro-1-methyl-1H-indol-5-yl)-6-(methoxymethyl)pyrazin-2-yl)piperidine-4-carboxylic acid]	> 2000	
COCCOc1ccc(-c2ncc(CCC(F)(F)F)nc2N2CCC(C(=O)O)CC2)cc1 [Compound 86, 1-(3-(4-(2-methoxyethoxy)phenyl)-6-(3,3,3-trifluoropropyl)pyrazin-2-yl)piperidine-4-carboxylic acid]	500 to 2000	
O=C(O)c1c[nH]c2cc(-c3cc(COC(F)(F)F)cnc3-c3cc(F)c4occc4c3)ccc12 [Compound 59, 6-(2-(7-fluorobenzofuran-5-yl)-5-((trifluoromethoxy)methyl)pyridin-3-yl)-1H-indole-3-carboxylic acid]	< 500	

Next, values leading:

IC50 [1] [nM]	IC50 [2] [nM]	Compound
< 500		CCCCc1cnc(-c2ccc(OCCOC)c(F)c2)c(N2CCC(C(=O)O)CC2)n1 [Compound 37, 1-(6-butyl-3-(3-fluoro-4-(2-methoxyethoxy)phenyl)pyrazin-2-yl)piperidine-4-carboxylic acid]
> 2000		O=C(O)C1CCN(c2nc(COCC(F)(F)F)cnc2-c2ccc(OC3CC3)cc2)CC1 [Compound 75, 1-(3-(4-cyclopropoxyphenyl)-6-((2,2,2-trifluoroethoxy)methyl)pyrazin-2-yl)piperidine-4-carboxylic acid]
500 to 2000		O=C(O)C1CCN(c2nc(CCC(F)(F)F)cnc2-c2ccc3c(c2)OCCO3)CC1 [Compound 122, 1-(3-(2,3-dihyrobenzo[b][1,4]dioxin-6-yl)-6-(3,3,3-trifluoropropyl)pyrazin-2-yl)piperidine-4-carboxylic acid]
	> 2000	COCCCc1cnc(-c2cccc3cn(C)nc23)c(N2CCC(C(=O)O)CC2)n1 [Compound 213, 1-(6-(3-methoxypropyl)-3-(2-methyl-2H-indazol-7-yl)pyrazin-2-yl)piperidine-4-carboxylic acid]
> 2000		CCCCc1cnc(-c2ccc(OC)cc2)c(-c2c[nH]c(C(=O)O)c2)c1 [Compound 21, 4-(5-butyl-2-(4-methoxyphenyl)pyridin-3-yl)-1H-pyrrole-2-carboxylic acid]
< 500		COCCOc1ccc(-c2ncc(CCCCC(F)(F)F)nc2N2CCC(C(=O)O)CC2)cc1 [Compound 133, 1-(3-(4-(2-methoxyethoxy)phenyl)-6-(5,5,5-trifluoropentyl)pyrazin-2-yl)piperidine-4-carboxylic acid]
< 500		O=C(O)C1CCN(c2nc(CCCC(F)(F)F)cnc2-c2ccc(OCC3CC3)cc2)CC1 [Compound 111, 1-(3-(4-(cyclopropylmethoxy)phenyl)-6-(4,4,4-trifluorobutyl)pyrazin-2-yl)piperidine-4-carboxylic acid]
